Legend:
Pigweed = assay: Greenhouse spray test, phytotoxicity rating on pigweed; format: in vivo, Amaranthus retroflexus (red root pigweed); on 24 hour phytotoxicity Rating (1 = least damage, 5 = most): COC 0.25% (v/v); on 9 day phytotoxicity Rating (1 = least damage, 5 = most): COC 0.25% (v/v)
Method: (§1) Ultra pure water was used in preparing solutions. For active ingredients (e.g. lactofen or flumioxazin), the active ingredient was dissolved in a small amount of solvent (dimethyl sulfoxide (DMSO) or 1-methyl-2-pyrrolidone), and then water was added. Spray solutions were used as soon as possible after mixing.
(§2) COC in water was used as the control.
(§3) After spraying, plants were allowed to dry at room temperature (about 25° C.). They were then moved to the greenhouse, and plants were arranged in a randomized complete block experimental design. Plants were evaluated for phytotoxicity/herbicidal effects at 24 hours and 7 to 9 days after spraying, assessing damage according to the following scale:
(§4) 5=100% leaf area affected
(§5) All the data were subject to an analysis of variance, and the mean separations were determined with Duncan's multiple range test at p=0.05.

Tobacco = assay: Greenhouse spray test, phytotoxicity/herbicidal effect and re-growth rating on tobacco; format: in vivo, Nicotiana tabacum (tobacco); on 8 day phytotoxicity Rating (1 = least damage, 5 = most): COC 0.25% (v/v); on 9 day phytotoxicity Rating (1 = least damage, 5 = most): COC 0.25% (v/v)
Method: as §1, §2, §3, §4
(§6) Plants were rated for re-growth at 7 to 9 days after treatment according to the following scale:
(§7) 2=75% of control regrowth
(§8) 3=50% of control regrowth
as §5

Burley tobacco = assay: Field test, phytotoxicity (percent leaf area affected) on Burley tobacco; format: in vivo; details: Burley tobacco in the field; apparent 1 day after application, persisted until day 7; summary of Table 6
Waterhemp = assay: Greenhouse spray test, phytotoxicity/herbicidal effect and re-growth rating on waterhemp; format: in vivo, Amaranthus rudis (water hemp)
Morning glory = assay: Greenhouse spray test, phytotoxicity rating on morning glory; format: in vivo; on 24 hour phytotoxicity Rating (1 = least damage, 5 = most): COC 0.25% (v/v)
Method: as §1, §2, §3, §4, §5

Cocklebur = assay: Greenhouse spray test, phytotoxicity/herbicidal effect and re-growth rating on cocklebur; format: in vivo, Xanthrum strumarium (cocklebur)
Method: as §1, §2, §3, §4, §6, §7, §8, §5

Giant Foxtail = assay: Greenhouse spray test, phytotoxicity/herbicidal effect and re-growth rating on giant foxtail; format: in vivo, Setaria faberi (giant foxtail)
Method: as §1, §2, §3, §4, §6, §7, §8, §5

Soybean = assay: Greenhouse spray test, phytotoxicity/herbicidal effect and re-growth rating on soybean; format: in vivo, Glycine max (soybean); on 24 hour phytotoxicity Rating (1 = least damage, 5 = most): COC 0.25% (v/v); on 8 day phytotoxicity Rating (1 = least damage, 5 = most): COC 0.25% (v/v)
Method: as §1, §2, §3, §4, §6, §7, §8, §5

Lambsquarter = assay: Greenhouse spray test, phytotoxicity/herbicidal effect and re-growth rating on lambsquarter; format: in vivo, Chenopodium album (lambsquarter)
Method: as §1, §2, §3, §4, §6, §7, §8, §5

[1] = Table 4, 24 hour, NaSA 1.6 g/L, Cobra 0.124 mL/L, Flumioxazin […], COC […] (v/v)
[2] = Table 4, 9 day, NaSA 1.6 g/L, Cobra 0.124 mL/L, Flumioxazin […], COC […] (v/v)
[3] = Table 1, 8 day, NaSA 1.6 g/L, Cobra 0.124 mL/L, COC […] (v/v)
[4] = added to Cobra, summary of Table 1
[5] = Table 2, 8 day, NaSA 1.6 g/L, Cobra 0.124 mL/L, Lactofen 0.030 g/L, COC […] (v/v)
[6] = Table 2, 8 day, NaSA 8.0 g/L, COC […] (v/v)
[7] = Table 2, 24 hour, NaSA 1.6 g/L, Cobra 0.124 mL/L, Lactofen 0.030 g/L, COC […] (v/v)

C#CCN1C(=O)COc2cc(F)c(N3C(=O)C4=C(CCCC4)C3=O)cc21 [Flumioxazin, flumioxazin]
24 hour phytotoxicity Rating (1 = least damage, 5 = most) (Pigweed; [1]): 4.2
9 day phytotoxicity Rating (1 = least damage, 5 = most) (Pigweed; [2]): 5.0
24 hour phytotoxicity Rating (1 = least damage, 5 = most) (Tobacco; [1]): 3.7
9 day phytotoxicity Rating (1 = least damage, 5 = most) (Tobacco; [2]): 5.0

O=C([O-])c1ccccc1O.[Na+] [NaSA, sodium salicylate]
Effect of addition of salicylate on Phoenix (lactofen) herbicidal activity (in words) (Burley tobacco): increased
8 day new growth rating (1 = healthy new growth, 5 = no new growth) (Waterhemp; [3]): 1.0
Synergism of Cobra activity by addition of salicylate (in words) (Waterhemp; [4]): not
Effect of salicylate on herbicidal activity of Cobra (in words) (Morning glory; added to Cobra, summary of Table 3): increases the herbicidal activity
Effect of salicylate on herbicidal activity of lactofen (in words) (Morning glory; added to lactofen, summary of Table 3): increases the herbicidal activity
8 day new growth rating (1 = healthy new growth, 5 = no new growth) (Cocklebur; [3]): 1.0
Synergism of Cobra activity by addition of salicylate (in words) (Cocklebur; [4]): not
Effect of salicylate on Cobra herbicidal activity (in words) (Pigweed; added to Cobra, effect not statistically significant, summary of Table 4): increased
Effect of salicylate on flumioxazin herbicidal activity (in words) (Pigweed; added to flumioxazin, effect not statistically significant, summary of Table 4): increased
8 day new growth rating (1 = healthy new growth, 5 = no new growth) (Giant Foxtail; [3]): 1.0
Synergism of Cobra activity by addition of salicylate (in words) (Giant Foxtail; [4]): not
8 day new growth rating (1 = healthy new growth, 5 = no new growth) (Soybean; [3]): 1.2
8 day new growth rating (1 = healthy new growth, 5 = no new growth) (Soybean; [5]): 2.0
8 day new growth rating (1 = healthy new growth, 5 = no new growth) (Soybean; [6]): 4.2
Synergism of Cobra activity by addition of salicylate (in words) (Soybean; [4]): not
Safening: effect of salicylate on herbicide-induced damage (in words) (Soybean; summary of Table 1): decrease and delay herbicide-induced damage
8 day new growth rating (1 = healthy new growth, 5 = no new growth) (Tobacco; [3]): 1.0
8 day new growth rating (1 = healthy new growth, 5 = no new growth) (Tobacco; [5]): 1.2
8 day new growth rating (1 = healthy new growth, 5 = no new growth) (Tobacco; [6]): 4.5
Synergism of Cobra activity by addition of salicylate (in words) (Tobacco; [4]): synergized
Effect of salicylate on flumioxazin activity (in words) (Tobacco; added to flumioxazin, summary of Table 4): increase flumioxazin activity
Effect of salicylate on lactofen activity (in words) (Tobacco; added to lactofen, summary of Table 2): increase lactofen activity
8 day new growth rating (1 = healthy new growth, 5 = no new growth) (Lambsquarter; [3]): 1.0
Synergism of Cobra activity by addition of salicylate (in words) (Lambsquarter; [4]): synergized

CCOC(=O)C(C)OC(=O)c1cc(Oc2ccc(C(F)(F)F)cc2Cl)ccc1[N+](=O)[O-] (centres unmarked) [Lactofen, lactofen]
24 hour phytotoxicity Rating (1 = least damage, 5 = most) (Morning glory; Table 3, 24 hour, NaSA 1.6 g/L, Cobra 0.124 mL/L, Lactofen 0.030 g/L, COC […] (v/v)): 3.3
24 hour phytotoxicity Rating (1 = least damage, 5 = most) (Soybean; [7]): 2.4
8 day new growth rating (1 = healthy new growth, 5 = no new growth) (Soybean; [5]): 2.6
8 day phytotoxicity Rating (1 = least damage, 5 = most) (Soybean; [5]): 2.7
24 hour phytotoxicity Rating (1 = least damage, 5 = most) (Tobacco; [7]): 3.1
8 day new growth rating (1 = healthy new growth, 5 = no new growth) (Tobacco; [5]): 5.0
8 day phytotoxicity Rating (1 = least damage, 5 = most) (Tobacco; [5]): 4.2
